Like-named read-outs stand apart in the source and are kept apart here.
Legend:
HCV NS5B genotype 1b = target: T1, HCV NS5B genotype 1b (Hepatitis C virus genotype 1b, UniProt Q9WMX2); assay: 3D-SCREEN assay (NS5B 3D-Screen platform, luciferase reporter gene); assay type: cell-based
T1 construct: The protein was expressed with a 21 amino acid C-terminal deletion to remove transmembrane domain; expressed in transfected cells; host or cells: Huh-7
Procedure, shortened: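 Huh-7 cells transiently co-transfected with NS5BΔ21/Gal4-DBD, 3D-Sensor peptide I4/VP16 and firefly luciferase reporter. Compounds added 2 h after seeding, 1% DMSO final, 24 h incubation. Luciferase luminescence read; % inhibition relative to no-compound signal.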

HCV replicon Luc Neo ET = assay: Luc Neo ET Replicon assay; assay type: cell-based, Hepatitis C virus; conditions: Table 3, titled RdRp enzyme assay results, EC50_Replicon LucneoET, 72 hours with compound, luciferase
Procedure: Human Hepatoma Huh-7 cell line was maintained in DMEM/HAMF-12 supplemented with 10% SVF, 4 mM glutamine, […] Na pyruvate, 1% penistreptomycine. HCV replicon containing Huh-7 cell lines Huh-9.13 and Luc Neo ET (Reblikon) were maintained in DMEM supplemented with 10% SVF, 2 mM glutamine, and 1×NEAA, 100 U/ml penicillin, and 100 μg/ml streptomycine. Replicon cells were maintained in medium supplemented with 1 mg/ml G418 for replicon Huh-9.13 and 0.5 mg/ml for Luc Neo et replicon unless indicated otherwise. Huh-7 and HCV replicon cell lines were maintained at 37° C. and 5% CO2 in a humidified atmosphere. Cells were dissociated at sub confluence with trypsin EDTA 1×.
Replicon Luc Neo ET is a bicistronic expression constructs (Lohmann et al, 1999, Science 285, 110-113). In brief, the structural genes of the HCV genome were replaced by heterologous sequences; the gene encoding the neomycin phosphotransferase (NPT) and the internal ribosome entry site (IRES) of the encephalomyocarditis virus (EMCV). The bicistronic construct is therefore composed of the following elements: HCV-IRES nucleotides 1-389, the NPT gene, the EMCV-IRES directing translation of downstream HCV sequences from NS2 or NS3 up to the authentic 3′ end of the genome. HCV Polyprotein harbours the cell culture adaptive mutations E1202G, T1280I, K1846T. G418-resistance is only possible with cells containing high amounts of replicon.
Cells were dissociated the day before addition of compounds and seeded in 96 well-plates at a final concentration of 77 777.77 cells.ml^−1.well^−2 in 90 μl final volume of culture medium per well and were maintained at 37° C. and 5% CO2 in a humidified atmosphere for 24 hours. 10 μl of compounds to be tested were added 24 hours after seeding. Final concentration of DMSO was 1%. Cells were incubated in the presence of compounds for 72 hours after which expression of firefly luciferase reporter gene was quantified. Briefly, culture medium was removed and cells were lysed by addition of 100 μl of lysis buffer containing 125 mM Tris Phosphate ph 7.8, 10 mM EDTA, 5 mM DTT, 50% glycerol and 5% Triton. Plates were vortexed 10 min at 1300 rpm. Cell lysat was transferred in OpaqueWhite Assay 96 well Flat Bottom plates. 100 μl of luciferin solution 1× were added to each well. Luciferin solution contained 40 mM Tris Phosphate ph 7.8, 0.2 mM EDTA, 67 mM DTT, 2.14 mM MgCl2, 5.4 mM MgSO4, 4.7×10^−4 M luciferin, 5.3×10^−4 M ATP and 2.7×10^−4 M Acetyl co enzyme A. Luminescence was immediately measured with Berthold Microlumat Plus LB 96V luminometer with an integration of 0.5 sec Inhibition was calculated using the formula:
% inhibition=1−[(RLUsample−RLUbackground)/(RLUsignal−RLUbackground)]

[1] = EC50_3DS_NS5B, Table 1, 3D-SCREEN assay results, Huh-7 cells, 24 hours with compound, firefly luciferase reporter
[2] = EC50_3DS_NS5B, Table 2, titled Replicon assay results

SMILES	EC50 (HCV NS5B genotype 1b; [1])	EC50 (HCV replicon Luc Neo ET; Hepatitis C virus, 72 h)	melting point	EC50 (HCV NS5B genotype 1b; [2])	EC50 (HCV NS5B genotype 1b; read-out: EC50_3DS_NS5B, Table 2, titled Replicon assay results)	EC50 (HCV replicon Luc Neo ET)
Cc1ccc(C(=O)C2=C(O)C(=O)N(c3ccc(C)nn3)C2c2ccc(C(C)C)cc2)cc1 (stereo not shown) [Example 8, 3-hydroxy-5-(4-isopropyl-phenyl)-4-(4-methyl-benzoyl)-1-(6-methyl-pyridazin-3-yl)-1,5-dihydro-pyrrol-2-one]	2000 nM	3000 nM	279 °C	–	–	–
Cc1ccc(N2C(=O)C(O)=C(C(=O)c3ccc(C(C)C)cc3)C2c2ccc(C(C)C)cc2)nn1 (stereo not shown) [Example 20, 3-hydroxy-4-(4-isopropyl-benzoyl)-5-(4-isopropyl-phenyl)-1-(6-methyl-pyridazin-3-yl)-1,5-dihydro-pyrrol-2-one]	400 nM	100 nM	271 °C	–	–	–
Cc1ccc(C(=O)C2=C(O)C(=O)N(c3ccc(C)nn3)C2c2ccc(OC(F)(F)F)cc2)cc1 (stereo not shown) [Example 22, 3-hydroxy-4-(4-methyl-benzoyl)-1-(6-methyl-pyridazin-3-yl)-5-(4-trifluoromethoxy-phenyl)-1,5-dihydro-pyrrol-2-one]	600 nM	500 nM	269 °C	–	–	–
Cc1ccc(N2C(=O)C(O)=C(C(=O)c3ccc(OC(F)(F)F)cc3)C2c2ccc(OC(F)(F)F)cc2)nn1 (stereo not shown) [Example 96, 3-hydroxy-1-(6-methyl-pyridazin-3-yl)-4-(4-trifluoromethoxy-benzoyl)-5-(4-trifluoromethoxy-phenyl)-1,5-dihydro-pyrrol-2-one]	–	< 1000 nM	–	< 1000 nM	–	–
Cc1ccc(N2C(=O)C(O)=C(C(=O)c3ccc(C(C)C)cc3)C2c2ccc(C(F)(F)F)nc2)nn1 (stereo not shown) [Example 98, 3-hydroxy-4-(4-isopropyl-benzoyl)-1-(6-methyl-pyridazin-3-yl)-5-(6-trifluoromethyl-pyridin-3-yl)-1,5-dihydro-pyrrol-2-one]	–	< 10000 nM	–	< 10000 nM	–	–
Cc1ccc(N2C(=O)C(O)=C(C(=O)c3ccc(C(C)C)cc3)C2c2ccc(C(F)(F)F)cn2)nn1 (stereo not shown) [Example 106, 3-hydroxy-4-(4-isopropyl-benzoyl)-1-(6-methyl-pyridazin-3-yl)-5-(5-trifluoromethyl-pyridin-2-yl)-1,5-dihydro-pyrrol-2-one]	–	< 10000 nM	–	< 10000 nM	–	–
CCOc1ccc(C2C(C(=O)c3ccc(C(C)C)cc3)=C(O)C(=O)N2c2ccc(C)nn2)cn1 (stereo not shown) [Example 110, 5-(6-ethoxy-pyridin-3-yl)-3-hydroxy-4-(4-isopropyl-benzoyl)-1-(6-methyl-pyridazin-3-yl)-1,5-dihydro-pyrrol-2-one]	–	< 1000 nM	–	< 1000 nM	–	–
Cc1ccc(N2C(=O)C(O)=C(C(=O)c3ccc(C(C)C)cc3)C2c2ccc(C(C)C)cn2)nn1 (stereo not shown) [Example 111, 3-Hydroxy-4-(4-isopropyl-benzoyl)-5-(5-isopropyl-pyridin-2-yl)-1-(6-methyl-pyridazin-3-yl)-1,5-dihydro-pyrrol-2-one]	–	< 10000 nM	–	< 10000 nM	–	–
Cc1ccc(N2C(=O)C(O)=C(C(=O)c3ccc(OC(C)C)cc3)C2c2ccc(OC(F)(F)F)cc2)nn1 (stereo not shown) [Example 115, 3-hydroxy-4-(4-isopropoxy-benzoyl)-1-(6-methyl-pyridazin-3-yl)-5-(4-trifluoromethoxy-phenyl)-1,5-dihydro-pyrrol-2-one]	–	< 10000 nM	–	< 10000 nM	–	–
CC(C)c1ccc(C(=O)C2=C(O)C(=O)N(c3ccc(Cl)nn3)C2c2ccc(OC(F)(F)F)cc2)cc1 (stereo not shown) [Example 118, 1-(6-chloro-pyridazin-3-yl)-3-hydroxy-4-(4-isopropyl-benzoyl)-5-(4-trifluoromethoxy-phenyl)-1,5-dihydro-pyrrol-2-one]	–	< 1000 nM	–	< 1000 nM	–	–
C#Cc1ccc(C2C(C(=O)c3ccc(C(C)C)cc3)=C(O)C(=O)N2c2ccc(C)nn2)cc1 (stereo not shown) [Example 137, 5-(4-ethynyl-phenyl)-3-hydroxy-4-(4-isopropyl-benzoyl)-1-(6-methyl-pyridazin-3-yl)-1,5-dihydro-pyrrol-2-one]	–	< 10000 nM	–	< 10000 nM	–	–
Cc1ccc(N2C(=O)C(NS(C)(=O)=O)=C(C(=O)c3ccc(C(C)C)cc3)C2c2ccc(OC(F)(F)F)cc2)nn1 (stereo not shown) [Example 149, N-[4-(4-isopropyl-benzoyl)-1-(6-methyl-pyridazin-3-yl)-2-oxo-5-(4-trifluoromethoxy-phenyl)-2,5-dihydro-1H-pyrrol-3-yl]-methanesulfonamide]	–	< 1000 nM	–	< 1000 nM	–	–
CCOc1ccc(C2C(C(=O)c3ccc(C(C)C)cc3)=C(O)C(=O)N2c2ccc(C)nn2)cn1 (stereo not shown) [Example 155, 2-ethoxy-5-[4-hydroxy-3-(4-isopropyl-benzoyl)-1-(6-methyl-pyridazin-3-yl)-5-oxo-2,5-dihydro-1H-pyrrol-2-yl]-pyridinium; chloride]	–	–	–	–	< 1000 nM	< 1000 nM
Cc1ccc(N2C(=O)C(O)=C(C(=O)c3ccc(C(C)C)cc3)C2c2ccc(C(C)(F)F)cc2)nn1 (stereo not shown) [Example 158, 5-[4-(1,1-difluoro-ethyl)phenyl]-3-hydroxy-4-(4-isopropyl-benzoyl)-1-(6-methyl-pyridazin-3-yl)-1,5-dihydro-pyrrol-2-one]	–	< 1000 nM	–	< 100 nM	–	–
Cc1ccc(N2C(=O)C(O)=C(C(=O)c3ccc(C(F)(F)F)cc3)C2c2ccc(OC(F)(F)F)cc2)nn1 (stereo not shown) [Example 162, 3-hydroxy-1-(6-methyl-pyridazin-3-yl)-5-(4-trifluoromethoxy-phenyl)-4-(4-trifluoromethyl-benzoyl)-1,5-dihydro-pyrrol-2-one]	–	< 10000 nM	–	< 1000 nM	–	–
Cc1ccc(N2C(=O)C(O)=C(C(=O)c3ccc(OC(F)(F)F)cc3)C2c2ccc(OC(C)C)nc2)nn1 (stereo not shown) [Example 169, 3-hydroxy-5-(6-isopropoxy-pyridin-3-yl)-1-(6-methyl-pyridazin-3-yl)-4-(4-trifluoromethoxy-benzoyl)-1,5-dihydro-pyrrol-2-one]	–	< 1000 nM	–	< 1000 nM	–	–
CCOc1ccc([C@@H]2C(C(=O)c3ccc(C(C)C)cc3)=C(O)C(=O)N2c2ccc(C)nn2)cn1 [Example 192, 5(R)-(6-ethoxy-pyridin-3-yl)-3-hydroxy-4-(4-isopropyl-benzoyl)-1-(6-methyl-pyridazin-3-yl)-1,5-dihydro-pyrrol-2-one]	–	< 1000 nM	–	< 1000 nM	–	–
Cc1ccc(N2C(=O)C(O)=C(C(=O)c3ccc(C(C)C)cc3)[C@H]2c2ccc(C(F)(F)F)nc2)nn1 [Example 195, 3-hydroxy-4-(4-isopropyl-benzoyl)-1-(6-methyl-pyridazin-3-yl)-5(R)-(6-trifluoromethyl-pyridin-3-yl)-1,5-dihydro-pyrrol-2-one]	–	< 1000 nM	–	< 1000 nM	–	–
Cc1ccc(N2C(=O)C(O)=C(C(=O)c3ccc(C(C)C)cc3)[C@H]2c2ccc(C(C)(F)F)cc2)nn1 [Example 196, 5(R)-[4-(1,1-difluoro-ethyl)-phenyl]-3-hydroxy-4-(4-isopropyl-benzoyl)-1-(6-methyl-pyridazin-3-yl)-1,5-dihydro-pyrrol-2-one]	–	< 1000 nM	–	< 1000 nM	–	–
Cc1ccc(N2C(=O)C(NS(C)(=O)=O)=C(C(=O)c3ccc(C(C)C)cc3)[C@H]2c2ccc(OC(F)(F)F)cc2)nn1 [Example 198, N-[4-(4-isopropyl-benzoyl)-1-(6-methyl-pyridazin-3-yl)-2-oxo-5(R)-(4-trifluoromethoxy-phenyl)-2,5-dihydro-1H-pyrrol-3-yl]-methanesulfonamide]	–	< 1000 nM	–	< 1000 nM	–	–

Source: patent US20120128630A1, “1-(6 MEMBERS AZO-HETEROCYCLIC)-PYRROLIN-2-ONE COMPOUNDS AS INHIBITORS OF HEPATITIS C NS5B POLYMERASE, THE PHARAMACEUTICAL COMPOSITION THEREOF AND THEIR THERAPEUTIC USE” (priority 2009, published 2012)
